Results: US20040235857A1, “Crystalline therapeutic agent” (Pfizer Inc, priority 2003, published 2004)

How the values were obtained:
[1] = Dynamic vapour sorption (DVS) moisture sorption; format: physicochemical; conditions: DVS isotherm, 30° C.
Method: The moisture sorption of the hydrated forms of sildenafil hemi-citrate was measured using a Surface Measurement Systems Ltd. Dynamic Vapour Sorption (DVS) Automated Water Sorption Analyser. A sample of the higher hydrate was initially equilibrated at about 45% RH and then analysed from 0 to 90% RH in relative humidity steps of 10% (exposure time of 6 hours per step). A second analysis was carried out from 35 to 65% RH in 5% RH steps to gain more detail in this humidity range (exposure time variable, weight stability of 0.0003%/minute gained for each steps). The temperature was maintained at 30° C. throughout the equilibration and analysis stages.
Sildenafil hemi-citrate is a hygroscopic material. The isotherm is represented in FIG. 5. At humidities greater than 55% RH the higher hydrate is present and from 30 to 40% RH the lower hydrate is present and at 0% RH the dehydrated form is present. Hysteresis occurs between the sorption and desorption isotherms in the 10 to 30 and 40 to 55% RH regions. This is classically seen for hydrates where kinetics associated with hydration and dehydration result in the events occurring at different humidities. There are slow kinetics associated with the rate of sorption (see FIG. 6) at 50% RH (illustrated by an equilibration time of 21 hours).

[2] = TGA of the higher hydrated form of sildenafil hemi-citrate; format: physicochemical; conditions: temperatures in excess of 150° C.; attributed to degradation of the citrate ion
Method: A TGA trace showing the relative % weight loss versus temperature for the solid form of the present invention is illustrated in FIG. 7. This trace was obtained using a Perkin-Elmer Pyris 1 TGA instrument. The sample, ideally about 5 to about 10 mg, was heated at 20° C./minute from ambient to about 300° C. with a purge gas of nitrogen.

relative humidity at which the form is present [1]: 0 % RH
second weight loss [2]: about 12%
Compound: CCCc1nn(C)c2c(=O)[nH]c(-c3cc(S(=O)(=O)N4CCN(C)CC4)ccc3OCC)nc12.CCCc1nn(C)c2c(=O)[nH]c(-c3cc(S(=O)(=O)N4CCN(C)CC4)ccc3OCC)nc12.O=C(O)CC(O)(CC(=O)O)C(=O)O [dehydrated hydrate]
